The text below walks through data of US10323027B2, “2,3-dihydro-4H-1,3-benzoxazin-4-one derivatives as modulators of cholinergic muscarinic M1 receptor” (Takeda Pharmaceutical Company Limited, priority 2015, dated 2019).

SMILES strings stand for the structures.

This experiment deals with T1, human M1 receptor (hCHRM1) (Homo sapiens, UniProt P11229).
T1 construct: expressed in transfected cells
T1 sequence (P11229 1-460): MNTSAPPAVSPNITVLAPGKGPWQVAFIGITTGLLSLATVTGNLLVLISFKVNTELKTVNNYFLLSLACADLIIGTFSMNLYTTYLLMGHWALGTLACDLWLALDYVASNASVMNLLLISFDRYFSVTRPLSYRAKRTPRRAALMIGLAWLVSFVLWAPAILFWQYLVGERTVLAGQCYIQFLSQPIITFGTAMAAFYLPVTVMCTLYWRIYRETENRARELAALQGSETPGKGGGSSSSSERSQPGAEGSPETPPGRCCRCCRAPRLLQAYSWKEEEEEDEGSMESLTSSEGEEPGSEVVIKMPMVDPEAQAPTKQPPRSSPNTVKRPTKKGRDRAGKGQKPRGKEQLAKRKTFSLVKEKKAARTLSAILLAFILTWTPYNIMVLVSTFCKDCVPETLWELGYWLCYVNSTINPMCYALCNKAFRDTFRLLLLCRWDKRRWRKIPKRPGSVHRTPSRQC
The experiment is described as follows: Measurement of M1 receptor positive allosteric modulator (M1PAM) activity, Ca2+ fluorescence by FLIPRtetra (Experimental Example 1). It counts as cell-based. The conditions noted are these: for activity (%) at 10 μM: 10 μM test compound, 100% = acetylcholine 1 μM, 0% = DMSO; for EC50: inflection point of concentration-dependent curve, in presence of acetylcholine at EC20 (0.8-1.0 nM), CHO-K1 cells expressing hCHRM1, read-out: IP value. In short, it runs like this: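 CHO-K1 cells stably expressing hCHRM1, loaded with Fluo-4 AM (probenecid), received compound with acetylcholine at EC20 (final 0.8-1.0 nM); Ca2+ fluorescence read 1 min by FLIPRtetra. Activity scaled 0% (DMSO) to 100% (1 μM acetylcholine); IP from inflection point of concentration curve.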

For `Cc1c(Cc2ccc(-c3ccn(C)n3)nc2)cc2c(c1C)OCN([C@H]1COCC[C@@H]1O)C2=O` [Example 37, 1,5-anhydro-2,4-dideoxy-2-(7,8-dimethyl-6-((6-(1-methyl-1H-pyrazol-3-yl)pyridin-3-yl)methyl)-4-oxo-2H-1,3-benzoxazin-3(4H)-yl)-L-threo-pentitol], the “activity (%) at 10 μM” value is 109% and the EC50 stood at 1.2 nM.

As for `COc1ccc(Cc2cc3c(c(C)c2C)OCN([C@H]2COCC[C@@H]2O)C3=O)cn1` [Example 29, 3-((3S,4S)-4-hydroxytetrahydro-2H-pyran-3-yl)-6-((6-methoxypyridin-3-yl)methyl)-7,8-dimethyl-2,3-dihydro-4H-1,3-benzoxazin-4-one], the “activity (%) at 10 μM” value is 106% and the EC50 amounted to 14 nM.

With `Cc1c(Cc2ccc(-n3cccn3)cc2)cc2c(c1F)OCN([C@H]1CCC[C@@H]1O)C2=O` (relative stereo) [Example 30, 8-fluoro-3-(trans-2-hydroxycyclopentyl)-7-methyl-6-(4-(1H-pyrazol-1-yl)benzyl)-2,3-dihydro-4H-1,3-benzoxazin-4-one], the “activity (%) at 10 μM” value is reported as 102% and the EC50 amounted to 8.6 nM.

With `CCc1ccc(Cc2cc3c(c4ccccc24)OCN([C@H]2COCC[C@@H]2O)C3=O)cn1` [Example 38, 1,5-anhydro-2,4-dideoxy-2-(6-((6-ethylpyridin-3-yl)methyl)-4-oxo-2H-naphtho[2,1-e][1,3]oxazin-3(4H)-yl)-L-threo-pentitol], the “activity (%) at 10 μM” value is 99% and the EC50 stood at 1.5 nM.

Take `Cc1c(Cc2ccc(Cl)nc2)cc2c(c1F)OCN([C@H]1CCC[C@@H]1O)C2=O` [Example 16, 6-((6-chloropyridin-3-yl)methyl)-8-fluoro-3-((1S,2S)-2-hydroxycyclopentyl)-7-methyl-2,3-dihydro-4H-1,3-benzoxazin-4-one]: the “activity (%) at 10 μM” value amounted to 102% and the EC50 was determined as 20 nM.

For `Cn1cc(-c2ccc(Cc3ccc4c(c3)C(=O)N([C@H]3CCCC[C@@H]3O)CO4)cn2)cn1` (relative stereo) [Example 63, 3-(trans-2-hydroxycyclohexyl)-6-((6-(1-methyl-1H-pyrazol-4-yl)pyridin-3-yl)methyl)-2,3-dihydro-4H-1,3-benzoxazin-4-one], the “activity (%) at 10 μM” value turned out to be 99% and the EC50 turned out to be 32 nM.

Regarding `Cc1c(Cc2ccc(Cl)nc2)cc2c(c1F)OCN([C@H]1COCC[C@@H]1O)C2=O` [Example 19, 1,5-anhydro-2-(6-((6-chloropyridin-3-yl)methyl)-8-fluoro-7-methyl-4-oxo-2H-1,3-benzoxazin-3(4H)-yl)-2,4-dideoxy-L-threo-pentitol], the “activity (%) at 10 μM” value turned out to be 105% and the EC50 was determined as 45 nM.

For the compound `O=C1c2cc(CN3CCSCC3)c3ccccc3c2OCN1[C@H]1CCC[C@@H]1O` [Example 57, 3-((1S,2S)-2-hydroxycyclopentyl)-6-(thiomorpholin-4-ylmethyl)-2,3-dihydro-4H-naphtho[2,1-e][1,3]oxazin-4-one], the “activity (%) at 10 μM” value was found to be 106% and the EC50 stood at 16 nM.

`COc1ccc(Cc2cc3c(c(C)c2C)OCN([C@H]2COCC[C@@H]2O)C3=O)cc1` (relative stereo) [Example 59, 1,5-anhydro-2,4-dideoxy-2-(6-(4-methoxybenzyl)-7,8-dimethyl-4-oxo-2H-1,3-benzoxazin-3(4H)-yl)-threo-pentitol]: the “activity (%) at 10 μM” value is recorded as 99% and the EC50 worked out at 21 nM.
